Assay: in vitro
Details: human, hela cells, % viability

Compound: O=C(O)CCc1nc(-c2ccncc2)no1 [CBK288558]
- viability at 28.5 h, 10 µM: 98.7%

Compound: COc1cc2[nH]c(=S)n3nc(-c4ccncc4)nc3c2cc1OC [CBK288559]
- viability at 28.5 h, 10 µM: 104%

Compound: CSc1nc2ccccc2c2nc(-c3ccncc3)nn12 [CBK288566]
- viability at 28.5 h, 10 µM: 99.7%

Compound: CCCCn1c(SCc2nc(-c3ccncc3)no2)nc2ccsc2c1=O [CBK288576]
- viability at 28.5 h, 10 µM: 87%

Compound: O=C(NCCn1c(-c2ccncc2)nc2ccccc21)c1ccc(F)c(F)c1 [CBK288577]
- viability at 28.5 h, 10 µM: 88.9%

Compound: O=S(=O)(NCCn1c(-c2ccncc2)nc2ccccc21)c1ccccc1 [CBK288578]
- viability at 28.5 h, 10 µM: 87.2%

Compound: O=S(=O)(Cc1ccc(-c2nc(-c3ccncc3)no2)o1)c1ccccc1 [CBK288579]
- viability at 28.5 h, 10 µM: 96.6%

Compound: Cc1cccc(NC(=O)NCCCn2c(-c3ccncc3)nc3cccnc32)c1 [CBK288580]
- viability at 28.5 h, 10 µM: 97.5%

Compound: COCCNC(=O)NCCCn1c(-c2ccncc2)nc2cccnc21 [CBK288581]
- viability at 28.5 h, 10 µM: 98.6%

Compound: O=C1CC(c2nc(-c3ccncc3)no2)CN1c1ccc2c(c1)OCO2 (centres unmarked) [CBK288583]
- viability at 28.5 h, 10 µM: 110%

Compound: NC(=O)Cn1cc(C(=O)c2ccncc2)c(=O)c2cc(Cl)ccc21 [CBK288584]
- viability at 28.5 h, 10 µM: 86%

Compound: O=C(c1csc(-c2ccncc2)n1)N1CCN(c2ccccc2)CC1 [CBK288590]
- viability at 28.5 h, 10 µM: 110%

Compound: O=C(NC1CCCCC1)c1csc(-c2ccncc2)n1 [CBK288591]
- viability at 28.5 h, 10 µM: 64.2%

Compound: Cn1c(=O)n(Cc2ccccn2)c(=O)c2cnc(-c3ccncc3)nc21 [CBK288592]
- viability at 28.5 h, 10 µM: 79%

Compound: Cc1cccc(Cn2c(=O)c3cnc(-c4ccncc4)nc3n(C)c2=O)c1 [CBK288593]
- viability at 28.5 h, 10 µM: 82.8%

Compound: O=C(CCn1cnc2cc(-c3noc(-c4cnccn4)n3)ccc21)N1CCCC1 [CBK288595]
- viability at 28.5 h, 10 µM: 104%

Compound: CCCN1C(=O)COc2ccc(-c3noc(-c4ccccn4)n3)cc21 [CBK288596]
- viability at 28.5 h, 10 µM: 92.1%

Compound: Cc1ccc(S(=O)(=O)CCc2noc(-c3n[nH]c4ccccc34)n2)cc1 [CBK288598]
- viability at 28.5 h, 10 µM: 104%

Compound: O=C(Cn1c(=O)c2nncn2c2ncccc21)NC1CCCCCC1 [CBK288600]
- viability at 28.5 h, 10 µM: 92.3%

Compound: Cc1nnc2c(=O)n(CC(=O)N3CCN(C(C)C)CC3)c3cccnc3n12 [CBK288601]
- viability at 28.5 h, 10 µM: 94.3%

Compound: O=C(NCCc1ccccc1)c1nc(-c2ccncc2)cs1 [CBK288604]
- viability at 28.5 h, 10 µM: 70%

Compound: CC(C)CC(=O)N1CCCn2nc(-c3ccncc3)cc2C1 [CBK288606]
- viability at 28.5 h, 10 µM: 94.7%

Compound: O=C(c1ccncc1)N1CCCn2nc(-c3cccnc3)cc2C1 [CBK288607]
- viability at 28.5 h, 10 µM: 88.7%

Compound: O=S(=O)(CCc1ccccc1)N1CCCn2nc(-c3ccncc3)cc2C1 [CBK288608]
- viability at 28.5 h, 10 µM: 87.3%

Compound: O=C(c1cn(-c2cc(Nc3ccccc3)ncn2)cn1)N1CCOCC1 [CBK288610]
- viability at 28.5 h, 10 µM: 103%

Compound: O=C(NC1CCCN(c2cc(-c3ccncc3)n[nH]2)C1)c1ccsc1 (centres unmarked) [CBK288619]
- viability at 28.5 h, 10 µM: 104%

Compound: O=C(c1ccncc1)N1CCCC1(CO)Cc1ccccc1 (centres unmarked) [CBK288620]
- viability at 28.5 h, 10 µM: 96.5%

Compound: Brc1ccc(-c2ccnc3nc(-c4ccncc4)nn23)cc1 [CBK288623]
- viability at 28.5 h, 10 µM: 102%

Compound: Cc1nc2ccccn2c1-c1csc(N)n1 [CBK288628B]
- viability at 28.5 h, 10 µM: 91.7%

Compound: CC(C)(C)CC(=O)N1C[C@@H]2C[C@H](C1)c1ccc(NS(=O)(=O)c3cccs3)c(=O)n1C2 [CBK288708]
- viability at 28.5 h, 10 µM: 80.6%

Compound: CCCS(=O)(=O)Nc1ccc(=O)n2c1[C@@H]1C[C@@H](CN(C(=O)c3ccc(OC)cc3)C1)C2 [CBK288711]
- viability at 28.5 h, 10 µM: 78.3%

Compound: O=C(Nc1ccccc1)Nc1ccc(=O)n2c1[C@@H]1C[C@@H](CN(C(=O)c3ccc(F)cc3)C1)C2 [CBK288714]
- viability at 28.5 h, 10 µM: 104%

Compound: O=C(Nc1ccc(=O)n2c1[C@@H]1C[C@@H](CN(C(=O)Nc3ccc(F)cc3)C1)C2)c1ccccc1 [CBK288715]
- viability at 28.5 h, 10 µM: 89.9%

Compound: O=C(NC1CC1)[C@H]1O[C@H](CCN2CCN(c3ccccc3)CC2)CC[C@@H]1O [CBK288717]
- viability at 28.5 h, 10 µM: 96.8%

Compound: C#CCN(C)CC[C@@H]1CC[C@H](O)[C@@H](C(=O)NC(C)C)O1 [CBK288718]
- viability at 28.5 h, 10 µM: 109%

Compound: CC(C)NC(=O)[C@H]1O[C@H](CCN2CCN(c3ccccc3)CC2)CC[C@@H]1O [CBK288719]
- viability at 28.5 h, 10 µM: 123%

Compound: CC(C)NC(=O)[C@H]1O[C@H](CCN2CCN(c3ccc(F)cc3)CC2)CC[C@@H]1O [CBK288721]
- viability at 28.5 h, 10 µM: 98.8%

Compound: CC(C)NC(=O)[C@H]1O[C@H](CCN2CCN(c3ccccn3)CC2)CC[C@@H]1O [CBK288722]
- viability at 28.5 h, 10 µM: 90.7%

Compound: C#CCN(C)CC[C@@H]1CC[C@H](O)[C@@H](C(=O)N2CCOCC2)O1 [CBK288723]
- viability at 28.5 h, 10 µM: 108%

Compound: O=C(Nc1ccccc1)[C@H]1O[C@H](CCN2CCN(c3ccccn3)CC2)CC[C@@H]1O [CBK288726]
- viability at 28.5 h, 10 µM: 87.9%

Compound: C#CCNC(=O)[C@H]1O[C@H](CCN2CCCCC2)CC[C@@H]1O [CBK288728]
- viability at 28.5 h, 10 µM: 101%

Compound: CC(C)NC(=O)[C@H]1CN2CCC1C[C@@H]2Cn1cc(-c2cccc(O)c2)nn1 (some centres unmarked) [CBK288731]
- viability at 28.5 h, 10 µM: 91.7%

Compound: CC(C)NC(=O)[C@H]1CN2CCC1C[C@@H]2Cn1cc(C2(O)CCCCC2)nn1 (some centres unmarked) [CBK288732]
- viability at 28.5 h, 10 µM: 99.3%

Compound: COCc1cn(C[C@H]2CC3CCN2C[C@@H]3C(=O)NC(C)C)nn1 (some centres unmarked) [CBK288733]
- viability at 28.5 h, 10 µM: 89.2%

Compound: O=C([C@H]1CN2CCC1C[C@@H]2Cn1cc(COc2ccccc2)nn1)N1CCOCC1 (some centres unmarked) [CBK288734]
- viability at 28.5 h, 10 µM: 113%

Compound: CC(C)(C)c1cn(C[C@H]2CC3CCN2C[C@@H]3C(=O)N2CCOCC2)nn1 (some centres unmarked) [CBK288735]
- viability at 28.5 h, 10 µM: 87.8%

Compound: Cn1nc(C2CCCC2)cc1[C@H]1CN2CC[C@H]1C[C@@H]2CNS(C)(=O)=O [CBK288742]
- viability at 28.5 h, 10 µM: 91.5%

Compound: CC[C@H]1C[N@@]2CC[C@H]1C[C@@H]2CNS(=O)(=O)c1cccc(C#N)c1 [CBK288746]
- viability at 28.5 h, 10 µM: 96.9%

Compound: C=C[C@H]1C[N@@]2CC[C@H]1C[C@@H]2CNS(=O)(=O)c1ccc(NC(C)=O)cc1 [CBK288749]
- viability at 28.5 h, 10 µM: 98.9%

Compound: C#C[C@H]1C[N@@]2CC[C@H]1C[C@@H]2CNS(=O)(=O)c1ccc(NC(C)=O)cc1 [CBK288752]
- viability at 28.5 h, 10 µM: 103%

Compound: C#C[C@H]1C[N@@]2CC[C@H]1C[C@@H]2CNC(=O)Nc1cccc(C#N)c1 [CBK288754]
- viability at 28.5 h, 10 µM: 97.2%

Compound: COc1ccc(S(=O)(=O)NC[C@H]2C[C@@H]3CC[N@]2C[C@@H]3CN2CCOCC2)cc1 [CBK288761]
- viability at 28.5 h, 10 µM: 87.7%

Compound: N#Cc1cccc(NC(=O)NC[C@H]2C[C@@H]3CC[N@]2C[C@@H]3CN2CCOCC2)c1 [CBK288763]
- viability at 28.5 h, 10 µM: 108%

Compound: N#Cc1cccc(NC(=O)NC[C@H]2C[C@@H]3CC[N@]2C[C@@H]3CN2CCCCC2)c1 [CBK288765]
- viability at 28.5 h, 10 µM: 99.5%

Compound: CC(=O)c1ccc(NC(=O)NC[C@H]2C[C@@H]3CC[N@]2C[C@@H]3CN2CCCCC2)cc1 [CBK288766]
- viability at 28.5 h, 10 µM: 92.3%

Compound: CC[C@H]1CN(C(=O)c2cccnc2)CC[C@H]1CC(=O)N1CCC(C(N)=O)CC1 [CBK288772]
- viability at 28.5 h, 10 µM: 104%

Compound: CC[C@H]1CN(C(=O)c2cccnc2)CC[C@H]1CC(=O)NCc1cccs1 [CBK288773]
- viability at 28.5 h, 10 µM: 89.7%

Compound: CC[C@H]1CN(C(=O)NC(C)C)CC[C@H]1CC(=O)NCc1ccc2c(c1)OCO2 [CBK288775]
- viability at 28.5 h, 10 µM: 97.9%

Compound: CC[C@H]1CN(C(=O)Nc2cccc(OC)c2)CC[C@H]1CC(=O)O [CBK288778]
- viability at 28.5 h, 10 µM: 110%
